According to patent publication US8952024B2, “Herbicidal pyrimidone derivatives” (E I du Pont de Nemours and Company, priority 2009, dated 2015):

Key:
Experiment in all cases: Test B pre-/postemergence plant response
Assay type in all cases: in vivo
[1] = system: Surinam grass (Brachiaria decumbens)
Summary of the method: (§1)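 Pre-em in loam/sand; post-em at 1–4 leaf (2–18 cm) in peat mix. Solvent + surfactant formulation. Greenhouse 13–15 d; visual % control vs untreated, 0–100.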

[2] = system: blackgrass (Alopecurus myosuroides)
Summary of the method: as §1

wild oat (Avena fatua) = system: wild oat (Avena fatua)
Summary of the method: as §1

[3] = system: goosegrass (Eleusine indica)
Summary of the method: as §1

[4] = system: giant foxtail (Setaria faberii)
Summary of the method: as §1

[5] = system: cocklebur (Xanthium strumarium)
Summary of the method: as §1

[6] = system: downy bromegrass (Bromus tectorum)
Summary of the method: as §1

kochia (Kochia scoparia) = conditions: Postemergence
Summary of the method: as §1

[7] = system: velvetleaf (Abutilon theophrasti)
Summary of the method: as §1

[8] = system: woolly cupgrass (Eriochloa villosa)
Summary of the method: as §1

[9] = system: large crabgrass (Digitaria sanguinalis)
Summary of the method: as §1

[10] = system: johnsongrass (Sorghum halepense)
Summary of the method: as §1

soybean (Glycine max) = system: soybean (Glycine max)
Summary of the method: as §1

[11] = system: green foxtail (Setaria viridis)
Summary of the method: as §1

[12] = system: morningglory (Ipomoea coccinea)
Summary of the method: as §1

corn (Zea mays) = system: corn (Zea mays)
Summary of the method: as §1

[13] = system: yellow nutsedge (Cyperus esculentus)
Summary of the method: as §1

[14] = Postemergence, 31 g ai/ha, 0 to 100 scale (0 no effect, 100 complete control)
[15] = Postemergence, 250 g ai/ha, scale 0 to 100 (0 no effect, 100 complete control), 13 to 15 days
[16] = Postemergence, 62 g ai/ha, scale 0 to 100 (0 no effect, 100 complete control)
[17] = Preemergence, 31 g ai/ha, scale 0 to 100 (0 no effect, 100 complete control)
[18] = Preemergence, 62 g ai/ha, scale 0 to 100, 0 no effect, 100 complete control
[19] = Preemergence, 125 g ai/ha, scale 0 to 100, 0 no effect, 100 complete control
[20] = Preemergence, 250 g ai/ha, 0 to 100 scale
[21] = Postemergence, 125 g ai/ha, scale 0 to 100 (0 no effect, 100 complete control)
[22] = 31 g ai/ha, 0 to 100 scale (0 no effect, 100 complete control)
[23] = 125 g ai/ha, scale 0 to 100 (0 no effect, 100 complete control)
[24] = 250 g ai/ha, scale 0 to 100 (0 no effect, 100 complete control), 13 to 15 days
[25] = 62 g ai/ha, scale 0 to 100 (0 no effect, 100 complete control)

CCc1cccc(-n2c(-c3ccccc3)ncc(C(=O)C3=C(O)CCCC3=O)c2=O)c1 [Compound 220]
Plant response rating, Surinam Grass [1, 14]: 50 | Plant response rating, Surinam Grass [1, 15]: 75 | Plant response rating, Surinam Grass [1, 16]: 60 | Plant response rating, Surinam Grass [1, 17]: 10 | Plant response rating, Surinam Grass [1, 18]: 20 | Plant response rating, Surinam Grass [1, 19]: 45 | Surinam Grass plant response rating [1, 20]: 65 | Plant response rating, Blackgrass [2, 14]: 10 | Plant response rating, Blackgrass [2, 21]: 30 | Plant response rating, Blackgrass [2, 15]: 40 | Plant response rating, Blackgrass [2, 16]: 20 | Plant response rating, Blackgrass [2, 17]: 10 | Plant response rating, Blackgrass [2, 18]: 20 | Plant response rating, Blackgrass [2, 19]: 20 | Blackgrass plant response rating [2, 20]: 35 | Plant response rating, Oat, Wild (wild oat (Avena fatua); [14]): 10 | Plant response rating, Oat, Wild (wild oat (Avena fatua); [15]): 50 | Plant response rating, Oat, Wild (wild oat (Avena fatua); [16]): 20 | Plant response rating, Oat, Wild (wild oat (Avena fatua); [18]): 0 | Plant response rating, Oat, Wild (wild oat (Avena fatua); [19]): 0 | Oat, Wild plant response rating (wild oat (Avena fatua); [20]): 60 | Plant response rating, Goosegrass [3, 14]: 80 | Plant response rating, Goosegrass [3, 21]: 85 | Plant response rating, Goosegrass [3, 15]: 90 | Plant response rating, Goosegrass [3, 16]: 85 | Plant response rating, Goosegrass [3, 17]: 65 | Plant response rating, Goosegrass [3, 18]: 95 | Plant response rating, Goosegrass [3, 19]: 98 | Goosegrass plant response rating [3, 20]: 100 | Plant response rating, Foxtail, Giant [4, 14]: 30 | Plant response rating, Foxtail, Giant [4, 21]: 55 | Plant response rating, Foxtail, Giant [4, 15]: 95 | Plant response rating, Foxtail, Giant [4, 16]: 50 | Plant response rating, Foxtail, Giant [4, 17]: 0 | Plant response rating, Foxtail, Giant [4, 18]: 0 | Plant response rating, Foxtail, Giant [4, 19]: 0 | Foxtail, Giant plant response rating [4, 20]: 75 | Plant response rating, Cocklebur [5, 17]: 0 | Plant response rating, Cocklebur [5, 18]: 0 | Cocklebur plant response rating [5, 20]: 0 | Plant response rating, Bromegrass, Downy [6, 14]: 10 | Plant response rating, Bromegrass, Downy [6, 21]: 15 | Plant response rating, Bromegrass, Downy [6, 15]: 30 | Plant response rating, Bromegrass, Downy [6, 16]: 10 | Plant response rating, Bromegrass, Downy [6, 17]: 0 | Plant response rating, Bromegrass, Downy [6, 18]: 0 | Plant response rating, Bromegrass, Downy [6, 19]: 0 | Bromegrass, Downy plant response rating [6, 20]: 5 | Plant response rating, Kochia (kochia (Kochia scoparia); [22]): 45 | Plant response rating, Kochia (kochia (Kochia scoparia); [23]): 75 | Plant response rating, Kochia (kochia (Kochia scoparia); [24]): 100 | Plant response rating, Kochia (kochia (Kochia scoparia); [25]): 65 | Plant response rating, Velvetleaf [7, 14]: 80 | Plant response rating, Velvetleaf [7, 15]: 100 | Plant response rating, Velvetleaf [7, 16]: 90 | Plant response rating, Velvetleaf [7, 17]: 45 | Plant response rating, Velvetleaf [7, 18]: 70 | Plant response rating, Velvetleaf [7, 19]: 90 | Velvetleaf plant response rating [7, 20]: 100 | Plant response rating, Cupgrass, Woolly [8, 14]: 60 | Plant response rating, Cupgrass, Woolly [8, 21]: 65 | Plant response rating, Cupgrass, Woolly [8, 15]: 65 | Plant response rating, Cupgrass, Woolly [8, 16]: 60 | Plant response rating, Cupgrass, Woolly [8, 17]: 0 | Plant response rating, Cupgrass, Woolly [8, 18]: 0 | Plant response rating, Cupgrass, Woolly [8, 19]: 10 | Cupgrass, Woolly plant response rating [8, 20]: 25 | Plant response rating, Crabgrass, Large [9, 14]: 70 | Plant response rating, Crabgrass, Large [9, 21]: 85 | Plant response rating, Crabgrass, Large [9, 15]: 90 | Plant response rating, Crabgrass, Large [9, 16]: 75 | Plant response rating, Crabgrass, Large [9, 17]: 0 | Plant response rating, Crabgrass, Large [9, 18]: 75 | Plant response rating, Crabgrass, Large [9, 19]: 80 | Crabgrass, Large plant response rating [9, 20]: 100 | Plant response rating, Johnsongrass [10, 14]: 60 | Plant response rating, Johnsongrass [10, 21]: 80 | Plant response rating, Johnsongrass [10, 15]: 90 | Plant response rating, Johnsongrass [10, 16]: 65 | Plant response rating, Johnsongrass [10, 17]: 0 | Plant response rating, Johnsongrass [10, 18]: 0 | Plant response rating, Johnsongrass [10, 19]: 0 | Johnsongrass plant response rating [10, 20]: 80 | Plant response rating, Soybean (soybean (Glycine max); [14]): 80 | Plant response rating, Soybean (soybean (Glycine max); [15]): 100 | Plant response rating, Soybean (soybean (Glycine max); [16]): 85 | Plant response rating, Soybean (soybean (Glycine max); [18]): 0 | Plant response rating, Soybean (soybean (Glycine max); [19]): 0 | Soybean plant response rating (soybean (Glycine max); [20]): 75 | Plant response rating, Foxtail, Green [11, 14]: 60 | Plant response rating, Foxtail, Green [11, 21]: 80 | Plant response rating, Foxtail, Green [11, 15]: 90 | Plant response rating, Foxtail, Green [11, 16]: 65 | Plant response rating, Foxtail, Green [11, 17]: 80 | Plant response rating, Foxtail, Green [11, 18]: 90 | Foxtail, Green plant response rating [11, 20]: 100 | Plant response rating, Morningglory [12, 14]: 65 | Plant response rating, Morningglory [12, 21]: 98 | Plant response rating, Morningglory [12, 15]: 100 | Plant response rating, Morningglory [12, 16]: 65 | Plant response rating, Morningglory [12, 17]: 0 | Plant response rating, Morningglory [12, 18]: 0 | Plant response rating, Morningglory [12, 19]: 0 | Morningglory plant response rating [12, 20]: 90 | Plant response rating, Corn (corn (Zea mays); [14]): 25 | Plant response rating, Corn (corn (Zea mays); [21]): 55 | Plant response rating, Corn (corn (Zea mays); [15]): 75 | Plant response rating, Corn (corn (Zea mays); [16]): 50 | Plant response rating, Corn (corn (Zea mays); [17]): 0 | Plant response rating, Corn (corn (Zea mays); [18]): 0 | Plant response rating, Corn (corn (Zea mays); [19]): 0 | Corn plant response rating (corn (Zea mays); [20]): 0 | Plant response rating, Nutsedge, Yellow [13, 14]: 10 | Plant response rating, Nutsedge, Yellow [13, 21]: 25 | Plant response rating, Nutsedge, Yellow [13, 15]: 55 | Plant response rating, Nutsedge, Yellow [13, 16]: 25 | Plant response rating, Nutsedge, Yellow [13, 17]: 0 | Plant response rating, Nutsedge, Yellow [13, 18]: 0 | Plant response rating, Nutsedge, Yellow [13, 19]: 60 | Nutsedge, Yellow plant response rating [13, 20]: 90

CCCn1c(-c2ccccc2)ncc(C(=O)C2=C(O)C3CCC(C3)C2=O)c1=O (stereo not shown) [Compound 226]
Plant response rating, Surinam Grass [1, 14]: 75 | Plant response rating, Surinam Grass [1, 15]: 85 | Plant response rating, Surinam Grass [1, 16]: 75 | Plant response rating, Blackgrass [2, 14]: 5 | Plant response rating, Blackgrass [2, 21]: 40 | Plant response rating, Blackgrass [2, 15]: 60 | Plant response rating, Blackgrass [2, 16]: 30 | Plant response rating, Oat, Wild (wild oat (Avena fatua); [14]): 25 | Plant response rating, Oat, Wild (wild oat (Avena fatua); [15]): 50 | Plant response rating, Oat, Wild (wild oat (Avena fatua); [16]): 30 | Plant response rating, Goosegrass [3, 14]: 80 | Plant response rating, Goosegrass [3, 21]: 85 | Plant response rating, Goosegrass [3, 15]: 85 | Plant response rating, Goosegrass [3, 16]: 80 | Plant response rating, Foxtail, Giant [4, 14]: 85 | Plant response rating, Foxtail, Giant [4, 21]: 95 | Plant response rating, Foxtail, Giant [4, 15]: 95 | Plant response rating, Foxtail, Giant [4, 16]: 90 | Plant response rating, Cocklebur [5, 14]: 98 | Plant response rating, Cocklebur [5, 21]: 100 | Plant response rating, Cocklebur [5, 15]: 100 | Plant response rating, Cocklebur [5, 16]: 98 | Plant response rating, Bromegrass, Downy [6, 14]: 0 | Plant response rating, Bromegrass, Downy [6, 21]: 5 | Plant response rating, Bromegrass, Downy [6, 15]: 30 | Plant response rating, Bromegrass, Downy [6, 16]: 0 | Plant response rating, Kochia (kochia (Kochia scoparia); [22]): 80 | Plant response rating, Kochia (kochia (Kochia scoparia); [23]): 100 | Plant response rating, Kochia (kochia (Kochia scoparia); [24]): 100 | Plant response rating, Kochia (kochia (Kochia scoparia); [25]): 85 | Plant response rating, Velvetleaf [7, 14]: 85 | Plant response rating, Velvetleaf [7, 15]: 98 | Plant response rating, Velvetleaf [7, 16]: 85 | Plant response rating, Cupgrass, Woolly [8, 14]: 80 | Plant response rating, Cupgrass, Woolly [8, 21]: 85 | Plant response rating, Cupgrass, Woolly [8, 15]: 95 | Plant response rating, Cupgrass, Woolly [8, 16]: 80 | Plant response rating, Crabgrass, Large [9, 14]: 85 | Plant response rating, Crabgrass, Large [9, 21]: 95 | Plant response rating, Crabgrass, Large [9, 15]: 98 | Plant response rating, Crabgrass, Large [9, 16]: 85 | Plant response rating, Johnsongrass [10, 14]: 85 | Plant response rating, Johnsongrass [10, 21]: 100 | Plant response rating, Johnsongrass [10, 15]: 100 | Plant response rating, Johnsongrass [10, 16]: 85 | Plant response rating, Soybean (soybean (Glycine max); [14]): 95 | Plant response rating, Soybean (soybean (Glycine max); [15]): 100 | Plant response rating, Soybean (soybean (Glycine max); [16]): 98 | Plant response rating, Foxtail, Green [11, 14]: 70 | Plant response rating, Foxtail, Green [11, 21]: 90 | Plant response rating, Foxtail, Green [11, 15]: 90 | Plant response rating, Foxtail, Green [11, 16]: 80 | Plant response rating, Morningglory [12, 14]: 98 | Plant response rating, Morningglory [12, 21]: 100 | Plant response rating, Morningglory [12, 15]: 100 | Plant response rating, Morningglory [12, 16]: 98 | Plant response rating, Corn (corn (Zea mays); [14]): 75 | Plant response rating, Corn (corn (Zea mays); [21]): 98 | Plant response rating, Corn (corn (Zea mays); [15]): 98 | Plant response rating, Corn (corn (Zea mays); [16]): 80 | Plant response rating, Nutsedge, Yellow [13, 14]: 55 | Plant response rating, Nutsedge, Yellow [13, 21]: 70 | Plant response rating, Nutsedge, Yellow [13, 15]: 75 | Plant response rating, Nutsedge, Yellow [13, 16]: 65
